Where two headings read alike, the source gives them in different places.
Assays:
VM48 melanoma cells = assay: MTT colorimetric assay, overall cell growth, VM48; format: cell-based, human; conditions: Homo sapiens, read-out: In Vitro IC50 Growth Inhibitory Values, VM48
DYRK1A kinase = target: T1, DYRK1A kinase (Homo sapiens, UniProt Q13627); assay: Radiometric protein kinase assay (33 PanQinase), DYRK-1A; format: biochemical; conditions: for IC50: dose-response 0-100 μM, n=3, read-out: IC50: Concentration of drug needed in order to inhibit kinase activity by 50%, DYRK-1A; for inhibition at 57 µM: read-out: inhibition of DYRK-1A activity
T1 construct: made in house
Method: (§1) The kinase inhibition profile of DLT11 at 20 μM was determined using 250 protein kinases. […] A radiometric protein kinase assay (33 PanQinase®Activity Assay) was used for measuring the kinase activity of 250 protein kinases. All kinase assays were performed in 96-well flashPlates™ from Perkin Elmer (Boston, Mass., USA) in a 50 μl reaction volume. The reaction cocktail was pipetted in 4 steps in the following order: • 10 μl of non-radioactive ATP solution (in H2O) • 25 μl of assay buffer/[γ-33P]-ATP mixture • 5 μl of test sample in 10% DMSO • 10 μl of enzyme/substrate mixture
as §1, with “of DLT95-Cl” for “of DLT11”, “using 255” for “using 250”
(§2) The assay for all enzymes contained 60 mM HEPES-NaOH, pH 7.5, 3 mM MgCl2, 3 mM MnCl2, 3 μM Na-orthovanadate, 1.2 mM DTT, 50 μg/ml PEG20000, 1 μM ATP/[γ-33P]-ATP (approx. […] per well), protein kinase, and substrate. All PKC assays (except the PKC-mu and the PKC-nu assay) additionally contained 1 mM CaCl2, 4 mM EDTA, 5 μg/ml Phosphatidylserine and 1 μg/ml 1,2-Dioleyl-glycerol. The MYLK2, CAMK1D, CAMK2A, CAMK2B, CAMK2D, CAMK4, CAMKK2, DAPK2 and EEF2K assays additionally contained 1 μg/ml Calmodulin and 0.5 mM CaCl2. The PRKG1 and PRKG2 assays additionally contained 1 μM cGMP.
(§3) The protein kinases were expressed either in Sf9 insect cells or in E. coli as recombinant GST-fusion proteins or as His-tagged proteins. All kinases were produced from human cDNAs. Kinases were purified by affinity chromatography using either GSH-agarose (Sigma) or Ni-NTH-agarose (Qiagen). The purity of the protein kinases was examined by SDS-PAGE/coomassie staining. The identity of the protein kinases was checked by mass spectroscopy.
(§4) The reaction cocktails were incubated at 30° C. for 60 minutes. The reaction was stopped with 50 μl of 2% (v/v) H3PO4, plates were aspirated and washed two times with 200 μl 0.9% (w/v) NaCl. All assays were performed with a BeckmanCoulter Biomek 2000/SL robotic system.
(§5) Incorporation of ^33Pi (counting of “cpm”) was determined with a microplate scintillation counter (Microbeta, Wallac).
(§6) For each kinase, the median value of the cpm of three wells with complete reaction cocktails, but without kinase, was defined as “low control” […]. This value reflects unspecific binding of radioactivity to the plate in the absence of protein kinase but in the presence of the substrate. Additionally, for each kinase the median value of the cpm of three other wells with the complete reaction cocktail, but without any compound, was taken as the “high control”, i.e. full activity in the absence of any inhibitor […]. The difference between high and low control of was taken as 100% activity for each kinase. As part of the data evaluation the low control value of each kinase was subtracted from the high control value as well as from their corresponding “compound values”. The residual activity (in %) for each compound well was calculated by using the following formula: Res. Activity (%)=100×[(cpm of compound−low control)/(high control−low control)]

Aurora B kinase = target: T2, Aurora B kinase (Homo sapiens, UniProt Q96GD4); assay: Radiometric protein kinase assay (33 PanQinase), Aurora B; format: biochemical; conditions: for IC50: dose-response 0-100 μM, n=3, read-out: IC50: Concentration of drug needed in order to inhibit kinase activity by 50%, AurB; for inhibition at 57 µM: read-out: inhibition of Aurora B activity
T2 construct: made in house
T2 sequence (Q96GD4 whole entry): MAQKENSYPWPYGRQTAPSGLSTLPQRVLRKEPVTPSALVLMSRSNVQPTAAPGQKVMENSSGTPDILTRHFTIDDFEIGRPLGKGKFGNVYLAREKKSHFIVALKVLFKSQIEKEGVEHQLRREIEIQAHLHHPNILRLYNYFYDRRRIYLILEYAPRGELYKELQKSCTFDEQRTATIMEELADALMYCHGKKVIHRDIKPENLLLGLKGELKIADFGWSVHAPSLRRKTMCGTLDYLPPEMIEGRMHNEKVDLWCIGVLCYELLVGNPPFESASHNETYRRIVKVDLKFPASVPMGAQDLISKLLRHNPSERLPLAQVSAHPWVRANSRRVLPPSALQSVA
Method: Note that at a concentration of 20 μM of the DLT compounds, the activity of the three Aurora kinases is reduced by approximately 40-50%, whereas at concentrations of 50 μM, i.e. the concentration used in the anti-proliferation assays of example 2B, the activity of said kinases is reduced by 60-75%.
The kinase inhibition profile of DLT95-Cl at 20 μM was determined using 255 protein kinases. Residual activity values were measured by testing each compound at one concentration in duplicate in each kinase assay. A radiometric protein kinase assay (33 PanQinase®Activity Assay) was used for measuring the kinase activity of 250 protein kinases. All kinase assays were performed in 96-well flashPlates™ from Perkin Elmer (Boston, Mass., USA) in a 50 μl reaction volume. The reaction cocktail was pipetted in 4 steps in the following order: • 10 μl of non-radioactive ATP solution (in H2O) • 25 μl of assay buffer/[γ-33P]-ATP mixture • 5 μl of test sample in 10% DMSO • 10 μl of enzyme/substrate mixture
as §2, §3, §4, §5, §6

WEE1 kinase = target: T3, WEE1 kinase (Homo sapiens, UniProt P30291); assay: Radiometric protein kinase assay (33 PanQinase), WEE1; format: biochemical; conditions: for IC50: dose-response 0-100 μM, n=3, read-out: IC50: Concentration of drug needed in order to inhibit kinase activity by 50%, WEE1; for inhibition at 57 µM: read-out: inhibition of WEE1 activity
T3 construct: made in house
T3 sequence (P30291 whole entry): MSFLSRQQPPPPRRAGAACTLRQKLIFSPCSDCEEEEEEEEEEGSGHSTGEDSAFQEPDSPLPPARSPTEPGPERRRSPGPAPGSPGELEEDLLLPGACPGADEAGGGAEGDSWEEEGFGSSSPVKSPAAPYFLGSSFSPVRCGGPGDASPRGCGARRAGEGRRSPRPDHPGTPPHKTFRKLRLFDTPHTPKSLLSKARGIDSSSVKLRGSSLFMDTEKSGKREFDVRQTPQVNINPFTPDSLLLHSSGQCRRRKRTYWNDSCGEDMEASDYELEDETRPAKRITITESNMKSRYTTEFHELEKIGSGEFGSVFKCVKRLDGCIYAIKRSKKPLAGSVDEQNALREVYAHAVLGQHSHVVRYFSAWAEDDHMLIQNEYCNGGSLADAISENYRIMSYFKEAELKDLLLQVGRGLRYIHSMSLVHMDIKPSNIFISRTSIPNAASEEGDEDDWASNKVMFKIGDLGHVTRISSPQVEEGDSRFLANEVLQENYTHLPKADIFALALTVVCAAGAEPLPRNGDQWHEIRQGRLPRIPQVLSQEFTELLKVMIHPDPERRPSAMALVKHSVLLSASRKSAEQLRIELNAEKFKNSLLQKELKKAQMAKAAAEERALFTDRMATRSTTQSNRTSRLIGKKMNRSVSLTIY
Method: A radiometric protein kinase assay (33 PanQinase®Activity Assay) was used for measuring the kinase activity of 250 protein kinases. All kinase assays were performed in 96-well flashPlates™ from Perkin Elmer (Boston, Mass., USA) in a 50 μl reaction volume. The reaction cocktail was pipetted in 4 steps in the following order: • 10 μl of non-radioactive ATP solution (in H2O) • 25 μl of assay buffer/[γ-33P]-ATP mixture • 5 μl of test sample in 10% DMSO • 10 μl of enzyme/substrate mixture
as §2, §3, §4, §5, §6

IC50 (VM48 melanoma cells; MTT, 72 hours of incubation) [µM]	inhibition of Dyrk1A (DYRK1A kinase; 20 μM (FIG. 3)) [%]	SMILES	IC50 (DYRK1A kinase) [µM]	IC50 (Aurora B kinase) [µM]	IC50 (WEE1 kinase) [µM]	inhibition at 57 µM (DYRK1A kinase) [%]	IC50 (VM48 melanoma cells; 72 h) [µM]	inhibition at 57 µM (Aurora B kinase) [%]	inhibition at 57 µM (WEE1 kinase) [%]
56	5	COc1cc(C(=O)OCCCCCCOC(=O)c2ccc(O)c(OC)c2)ccc1O [DLT11, Hexane-1,6-diyl bis-(4-hydroxy-3-methoxybenzoate)]	–	–	–	–	–	–	–
–	–	COc1cc(C(=O)OCc2cc(COC(=O)c3ccc(O)c(OC)c3)cc(COC(=O)c3ccc(O)c(OC)c3)c2)ccc1O [DLT95, [3,5-bis[(4-hydroxy-3-methoxy-benzoyl)oxymethyl]phenyl]methyl 4-hydroxy-3-methoxy-benzoate]	> 100	3.4	> 100	–	–	–	–
–	–	O=C(OCc1cc(COC(=O)c2ccc(O)c(Cl)c2)cc(COC(=O)c2ccc(O)c(Cl)c2)c1)c1ccc(O)c(Cl)c1 [DLT95-Cl, [3,5-bis[(4-hydroxy-3-chloro-benzoyl)oxymethyl]phenyl]methyl 4-hydroxy-3-chloro-benzoate]	3.2	0.9	3.74	≥ 50	32	≥ 50	≥ 50
–	–	O=C(OCc1cc(COC(=O)c2ccc(O)c(F)c2)cc(COC(=O)c2ccc(O)c(F)c2)c1)c1ccc(O)c(F)c1 [DLT95-F, [3,5-bis[(4-hydroxy-3-fluoro-benzoyl)oxymethyl]phenyl]methyl 4-hydroxy-3-fluoro-benzoate]	7.1	2.4	7.12	≥ 50	61	≥ 50	≥ 50
> 1000	–	COc1cc(C(=O)O)ccc1O [vanillic acid, reference compound]	> 100	> 100	> 100	–	–	–	–

SMILES	IC50 (VM48 melanoma cells; MTT, 72 hours of incubation) [µM]	inhibition of Dyrk1A (DYRK1A kinase; 20 μM (FIG. 3)) [%]	IC50 (DYRK1A kinase) [µM]	IC50 (Aurora B kinase) [µM]	IC50 (WEE1 kinase) [µM]	inhibition at 57 µM (DYRK1A kinase) [%]	IC50 (VM48 melanoma cells; 72 h) [µM]	inhibition at 57 µM (Aurora B kinase) [%]	inhibition at 57 µM (WEE1 kinase) [%]
COc1cc(C(=O)OCCOC(=O)c2ccc(O)c(OC)c2)ccc1O [DLT1, Ethane-1,2-diyl bis-(4-hydroxy-3-methoxybenzoate)]	53	–	–	–	–	–	–	–	–

— patent publication US20110280940A1, “Di-Vanilloyl And Tri-Vanilloyl Derivatives For Use In Anti-Cancer Therapy” (priority 2008, published 2011)
